Test systems include M14 melanoma; HT29 colon; SN12C renal; CCRF-CEM leukemia; HS 578T breast; UACC-257 melanoma; COLO 205 colon; NCI-H460 lung; SK-OV-3 ovarian; DU-145 prostate.
What all share (assay): NCI tumour cell line growth inhibition, 48 h

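Cells were grown in 96-well plates and exposed to each compound for 48 hours at five concentrations; endpoints were interpolated linearly between bracketing concentrations, or set to the highest concentration if not reached. TGI is the concentration that stops growth completely.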

The record followed here is PubChem BioAssay (NCI).

Regarding `CN1C/C(=C\c2cccs2)C(=O)/C(=C/c2cccs2)C1`, the TGI with M14 melanoma is 82.9 µM; in the experiment with HT29 colon, 50.5 µM; in the experiment with SN12C renal, 76.5 µM; in the experiment with CCRF-CEM leukemia it was 26.7 µM; in the experiment with HS 578T breast, above 100 µM; in the experiment on UACC-257 melanoma, above 100 µM. In addition, the TGI with COLO 205 colon is 91.7 µM; in the experiment on NCI-H460 lung it was above 100 µM; in the experiment with SK-OV-3 ovarian, above 100 µM; with DU-145 prostate, above 100 µM.
Regarding `COC(=O)/C=C\C(C#N)(C#N)N=Cc1ccc(Br)cc1`, the TGI was determined as 22.6 µM in the experiment on M14 melanoma; 6.22 µM with HT29 colon; 17.8 µM in the experiment with SN12C renal; 5.91 µM in the experiment on CCRF-CEM leukemia; 49.7 µM in the experiment on HS 578T breast; 28 µM in the experiment with UACC-257 melanoma. Moreover, the TGI in the experiment on COLO 205 colon was found to be 9.55 µM; in the experiment on NCI-H460 lung, 40.5 µM; in the experiment on SK-OV-3 ovarian, 33.6 µM; with DU-145 prostate, 16.7 µM.
Consider `O=C(NNc1nc(-c2ccccc2)cs1)Nc1ccccc1`, for which the TGI is above 100 µM with M14 melanoma; 76.2 µM in the experiment with HT29 colon; 97.8 µM with SN12C renal; above 100 µM in the experiment on CCRF-CEM leukemia; 74.3 µM in the experiment on HS 578T breast; 59.3 µM with UACC-257 melanoma. For the same compound, the TGI was 56.4 µM in the experiment on COLO 205 colon, 50.6 µM in the experiment with NCI-H460 lung, 52.2 µM with SK-OV-3 ovarian and 89.1 µM in the experiment on DU-145 prostate.
Turning to `CC(C)=CCC[C@@H](C)C1=C(O)C(Nc2ccccc2)=C(C)C(=O)C1=O`, the TGI with M14 melanoma was 34.9 µM; in the experiment on HT29 colon it was above 96.3 µM; in the experiment on SN12C renal, above 100 µM; in the experiment on CCRF-CEM leukemia, 5.78 µM; in the experiment with HS 578T breast, above 100 µM; with UACC-257 melanoma, above 100 µM. For the same compound, the TGI is above 61.8 µM with COLO 205 colon, above 64.5 µM in the experiment on NCI-H460 lung, above 96.2 µM in the experiment on SK-OV-3 ovarian and above 74.2 µM with DU-145 prostate.
In the case of `COC(=O)C(CNC(=O)/C=C/c1ccc(OC(C)=O)c(OC(C)=O)c1)NC(=O)/C=C/c1ccc(OC(C)=O)c(OC(C)=O)c1` (centres undefined), the TGI in the experiment with M14 melanoma, with HT29 colon, with SN12C renal, in the experiment with CCRF-CEM leukemia, in the experiment with HS 578T breast and with UACC-257 melanoma was above 100 µM throughout. For the same compound, the TGI with COLO 205 colon, in the experiment on NCI-H460 lung, in the experiment on SK-OV-3 ovarian and with DU-145 prostate was above 100 µM throughout.
For `Nc1c(C(=O)O)nnc2cc(Cl)ccc12`, the TGI in the experiment with M14 melanoma, in the experiment on HT29 colon, in the experiment with SN12C renal, in the experiment with CCRF-CEM leukemia, in the experiment with HS 578T breast and with UACC-257 melanoma was above 100 µM each time. The TGI in the experiment with COLO 205 colon, with NCI-H460 lung, in the experiment on SK-OV-3 ovarian and in the experiment with DU-145 prostate was above 100 µM each time.
For the compound `Clc1ncnc2c1nc(C#Cc1ccccc1)n2C1CCCCO1` (centres undefined), the TGI in the experiment with M14 melanoma was 4.39 µM; with HT29 colon, 3.98 µM; in the experiment with CCRF-CEM leukemia it was above 100 µM; in the experiment on HS 578T breast, 42.6 µM; in the experiment on UACC-257 melanoma it was 6.01 µM; in the experiment on COLO 205 colon it was 2.97 µM. The TGI with NCI-H460 lung is 8.09 µM; with SK-OV-3 ovarian, 21.3 µM; with DU-145 prostate, 2.79 µM.
For `C=C1CC(O)C2C(=C)C(=O)OC2C2C(C)C(=O)CC12` (centres undefined), the TGI in the experiment on M14 melanoma came out at 25.6 µM; in the experiment with HT29 colon, 42.8 µM; in the experiment with SN12C renal, 29.9 µM; in the experiment on CCRF-CEM leukemia, 41.4 µM; with HS 578T breast, 63.2 µM; with UACC-257 melanoma, 26.5 µM. The TGI in the experiment on COLO 205 colon is 43.5 µM; with NCI-H460 lung it was 58 µM; with SK-OV-3 ovarian it was above 100 µM; in the experiment with DU-145 prostate, 46.8 µM.
For the compound `Cc1oc2nc(N(C)C)n3cnnc3c2c1C`, the TGI with M14 melanoma, in the experiment with HT29 colon, in the experiment with SN12C renal, with CCRF-CEM leukemia, in the experiment with HS 578T breast and in the experiment with UACC-257 melanoma was above 100 µM each time. Besides, the TGI in the experiment on COLO 205 colon, in the experiment with NCI-H460 lung, in the experiment with SK-OV-3 ovarian and in the experiment on DU-145 prostate was above 100 µM throughout.
For `O=C(CN1CCN(c2ccccn2)CC1)N1CCCn2c1nc1ccccc1c2=O`, the TGI in the experiment on M14 melanoma, in the experiment on HT29 colon, in the experiment on SN12C renal, in the experiment on CCRF-CEM leukemia, with HS 578T breast and with UACC-257 melanoma was above 100 µM each time. In addition, the TGI in the experiment with COLO 205 colon, in the experiment on NCI-H460 lung, in the experiment with SK-OV-3 ovarian and in the experiment on DU-145 prostate was above 100 µM in each case.
As to `OCC(S)CS.[Bi]` (centres undefined), the TGI in the experiment on M14 melanoma came out at 29.5 µM; with HT29 colon it was 46.4 µM; in the experiment with SN12C renal, 37.9 µM; in the experiment on CCRF-CEM leukemia it was 5.22 µM; in the experiment with HS 578T breast it was 53.5 µM; with UACC-257 melanoma it was 27.9 µM. Also, the TGI in the experiment on COLO 205 colon was 30 µM; in the experiment with NCI-H460 lung, above 100 µM; with SK-OV-3 ovarian it was above 100 µM; with DU-145 prostate, 68.5 µM.
On to `CCC(C)N1CN(c2ccccc2)C2(CCN(CCCC3(c4ccc(F)cc4)OCCO3)CC2)C1=O` (centres undefined), for which the TGI in the experiment on M14 melanoma is above 35.7 µM; in the experiment with HT29 colon, above 37.5 µM; in the experiment on SN12C renal it was 18.9 µM; in the experiment with CCRF-CEM leukemia it was 15.3 µM; in the experiment with HS 578T breast it was 14.2 µM; in the experiment on UACC-257 melanoma, 4.24 µM. For the same compound, the TGI in the experiment on COLO 205 colon was 16.8 µM; with NCI-H460 lung, 30.8 µM; in the experiment on SK-OV-3 ovarian, 56 µM; with DU-145 prostate, above 57.3 µM.
As to `Cc1nccn1S(=O)(=O)c1ccc(Cl)cc1`, the TGI with M14 melanoma, in the experiment on HT29 colon, in the experiment with SN12C renal, with CCRF-CEM leukemia, in the experiment with HS 578T breast and with UACC-257 melanoma was above 100 µM each time. In addition, the TGI with COLO 205 colon was 40.2 µM; in the experiment on NCI-H460 lung, above 100 µM; in the experiment with SK-OV-3 ovarian it was above 100 µM; in the experiment on DU-145 prostate, above 100 µM.
As for `Nc1ccn(CC(O)c2cc3ccccc3[nH]2)c(=O)n1` (centres undefined), the TGI in the experiment with M14 melanoma, in the experiment on HT29 colon, with SN12C renal, in the experiment on CCRF-CEM leukemia, in the experiment with HS 578T breast and with UACC-257 melanoma was above 100 µM in each case. For the same compound, the TGI in the experiment on COLO 205 colon, with NCI-H460 lung, in the experiment on SK-OV-3 ovarian and with DU-145 prostate was above 100 µM throughout.
